Reference: US4591582A, “Organophosphorus compounds useful as anticonvulsant agents” (priority 1984, dated 1986)
Like-named read-outs stand apart in the source and are kept apart here.

Experiments:
[1] = test system: seizures induced by subcutaneous bicuculline (scBic); details: data taken from Kupferberg, 1980, cited from earlier work; for ED50, scBic: bicuculline 2.7 mg/kg s.c.
[2] = test system: seizures induced by subcutaneous picrotoxin (scPic); details: data taken from Kupferberg, 1980, cited from earlier work; for ED50, scPic: picrotoxin 3.2 mg/kg s.c.
[3] = test system: convulsions induced in mice by MES and scMet; details: reported, Kupferberg, 1980; cited from earlier work
[4] = Rotorod neurotoxicity test (failure to remain on rotating rod, 6 rpm, for 1 min); assay type: in vivo, male Carworth Farms No. 1 mice; details: mouse, in vivo, ip; mice, i.p., 30 mins. after dosing
Protocol: (§1) All tests were performed on male Carworth Farms No. 1 mice by the Antiepileptic Drug Development Program administered by the Section of Epilepsy, National Institutes of Health, Bethesda, MD 20014, according to previously described procedures [DHEW Publication No. (NIH) 76-1093 (1976), Bethesda, MD]. These involved the inhibition of seizures induced by maximal electroshock (MES) and by three subcutaneously administered chemicals: 85 mg/kg pentylenetetrazol (Metrazol) (scMet), 2.7 mg/kg bicuculline (scBic) and 3.2 mg/kg picrotoxin (scPic). Test compounds were solubilized in polyethylene glycol 400 and administered intraperitoneally in a volume of 0.01 ml/g. The time of peak anticonvulsant activity were determined for II (200 mg/kg), III (300 mg/kg) and IV (300 mg/kg) against MES and for I (200 mg/kg) against scMet with dosing of I-III at 0.5, […]. using four mice per dose. Neurotoxicity was evaluated by placing an animal on a 1 in. diameter knurled plastic rod and rotating at 6 rpm. Failure of the animal to remain on the rod for 1 min. signified neurological toxicity. This testing was performed using groups of eight mice on a time course basis by dosing with I (900 mg/kg), II (400 mg/kg) and III (360 mg/kg) after 0.5, 1, 2 and 4 hrs. and with IV (580 mg/kg) after an additional 6 and 24 hrs. The neurotoxicity was also similarly quantified, with observations taken 30 mins. after dosing, as follows (compound/mg/kg): I, 400, 500, 600, 700, 800, 900; II, 350, 400, 430, 470; III, 230, 260, 300, 360, 420; IV, 150, 300, 400, 500, 580, 600. Quantification of anticonvulsant activity was similarly determined as follows (compound, test, mg/kg), I, MES, 100, 140, 150, 160, 170, 190, 250; I, scMet, 140, 200, 240, 300, 400, 500; I, scBic, 350, 400, 450, 475, 500; I, scPic, 150, 250, 330, 440, 500; II, MES, 130, 170, 200, 230; II, scMet, 150, 180, 230, 300; III, MES, 220, 240, 280, 290, 300; III, scMet, 300, 400, 500, 600; IV, MES, 150, 220, 300, 400, 500, 600; IV, scMet, 300, 410, 470, 600, 760. […] I=dimethyl ester of 3-aminophenylphosphonic acid; II=diethyl ester of 3-aminophenylphosphonic acid; III=diisopropyl ester of 3-aminophenylphosphonic acid; and IV=diethyl-2-acetamidophenylphosphate.

neurotoxicity (Rotorod) [5] = experiment: as above; assay type: in vivo, male Carworth Farms No. 1 mice
Protocol: as §1

[6] = test system: seizures induced by subcutaneous bicuculline (scBic); experiment: inhibition of seizures induced by subcutaneous bicuculline (scBic), 2.7 mg/kg; assay type: in vivo, male Carworth Farms No. 1 mice
Protocol: as §1, with “600.” for “600. Quantification of anticonvulsant activity was similarly determined as follows (compound, test, mg/kg), I, MES, 100, 140, 150, 160, 170, 190, 250; I, scMet, 140, 200, 240, 300, 400, 500; I, scBic, 350, 400, 450, 475, 500; I, scPic, 150, 250, 330, 440, 500; II, MES, 130, 170, 200, 230; II, scMet, 150, 180, 230, 300; III, MES, 220, 240, 280, 290, 300; III, scMet, 300, 400, 500, 600; IV, MES, 150, 220, 300, 400, 500, 600; IV, scMet, 300, 410, 470, 600, 760.”

[7] = test system: seizures induced by maximal electroshock (MES); experiment: inhibition of seizures induced by maximal electroshock (MES) in mice, intraperitoneal; assay type: in vivo, male Carworth Farms No. 1 mice; details: for ED50, MES / P.I. (protective index, TD50/ED50), MES: i.p.; for factor of greater protection against MES than VPA: relative to VPA (valproic acid)
Protocol: as §1

[8] = test system: seizures induced by subcutaneous picrotoxin (scPic); assay type: in vivo, male Carworth Farms No. 1 mice
Protocol: as §1, with “600.” for “600. Quantification of anticonvulsant activity was similarly determined as follows (compound, test, mg/kg), I, MES, 100, 140, 150, 160, 170, 190, 250; I, scMet, 140, 200, 240, 300, 400, 500; I, scBic, 350, 400, 450, 475, 500; I, scPic, 150, 250, 330, 440, 500; II, MES, 130, 170, 200, 230; II, scMet, 150, 180, 230, 300; III, MES, 220, 240, 280, 290, 300; III, scMet, 300, 400, 500, 600; IV, MES, 150, 220, 300, 400, 500, 600; IV, scMet, 300, 410, 470, 600, 760.”

[9] = test system: seizures induced by subcutaneous pentylenetetrazol (Metrazol) (scMet); experiment: inhibition of seizures induced by subcutaneous pentylenetetrazol (Metrazol) (scMet), 85 mg/kg; assay type: in vivo, male Carworth Farms No. 1 mice; details: for P.I. (protective index, TD50/ED50), scMet / ED50, scMet: i.p.
Protocol: as §1

[10] = test system: convulsions induced in mice by MES and scMet; experiment: time course of protection against convulsions induced by MES and scMet (FIG. 1); assay type: in vivo; details: i.p., 300 mg/kg
Protocol: FIG. 1 is a graphical representation showing the time course of percent protection by intraperitoneally administered I-IV against seizures induced by maximal electroshock (MES) or subcutaneous pentylenetetrazol (Metrazol) (scMet). Key: ( ) I (dimethyl ester of 3-aminophenylphosphonic acid) 400 mg/kg, scMet: ( ) II (diethyl ester of 3-aminophenylphosphonic acid) 200 mg/kg, MES; ( ) III (diisopropyl ester of 3-aminophenylphosphonic acid) 300 mg/kg, MES: ( ) IV (diethyl-2-acetamidophenylphosphate) 300 mg/kg, MES.
All tests were performed on male Carworth Farms No. 1 mice by the Antiepileptic Drug Development Program administered by the Section of Epilepsy, National Institutes of Health, Bethesda, MD 20014, according to previously described procedures [DHEW Publication No. (NIH) 76-1093 (1976), Bethesda, MD]. […] The time of peak anticonvulsant activity were determined for II (200 mg/kg), III (300 mg/kg) and IV (300 mg/kg) against MES and for I (200 mg/kg) against scMet with dosing of I-III at 0.5, […]. using four mice per dose. Neurotoxicity was evaluated by placing an animal on a 1 in. diameter knurled plastic rod and rotating at 6 rpm. […]

[11] = test system: seizures induced by subcutaneous pentylenetetrazol (Metrazol) (scMet); details: data taken from Kupferberg, 1980, cited from earlier work; for ED50, scMet: pentylenetetrazol 85 mg/kg s.c.
neurotoxicity (Rotorod) [12] = details: data taken from Kupferberg, 1980; cited from earlier work
[13] = test system: seizures induced by maximal electroshock (MES); details: data taken from Kupferberg, 1980; cited from earlier work
[14] = mice, pentylenetetrazol 85 mg/kg s.c.

| SMILES | ED50, scBic [1] [mg/kg] | ED50, scPic [2] [mg/kg] | time to peak effect [3] [min] | TD50 at 0.5 h [4] [mg/kg] | ED50, MES ([7]; mice) [mg/kg] | P.I. (protective index, TD50/ED50), MES ([7]; mice) | P.I. (protective index, TD50/ED50), scMet ([9]; mice) | ED50, scMet [11] [mg/kg] | other results |
| --- | --- | --- | --- | --- | --- | --- | --- | --- | --- |
| CCC1(C)CC(=O)NC1=O (stereo not drawn) [Ethosuximide] | 459.01 | 242.69 | 30 |  |  |  |  |  |  |
| COP(=O)(OC)c1cccc(N)c1 [I, dimethyl ester of 3-aminophenylphosphonic acid] |  |  |  | 680 | 166.46 | 4.08 | 2.83 |  | neurotoxicity dose level (neurotoxicity (Rotorod) [5]; compared with valproic acid): superior neurotoxicity dose level; P.I. (protective index, TD50/ED50), scBic ([6]; mice, i.p., TD50/ED50): 1.56; ED50, scBic ([6]; mice, i.p., bicuculline 2.7 mg/kg s.c.): 435.94 mg/kg; effectiveness against scBic relative to VPA ([6]; relative to VPA): 1.3 times; times better than valproic acid against chemically induced seizures ([6]; second of two chemically induced seizures (scBic)): 1.3 times; factor of greater protection against MES than VPA [7]: 2.6 times; factor of greater protection against MES than VPA ([7]; listed as dimethyl ester of 3-aminophenylphosphonic acid): about 2.5 times; times better than valproic acid against chemically induced seizures ([8]; first of two chemically induced seizures (scPic)): 1.8 times; P.I. (protective index, TD50/ED50), scPic ([8]; mice, i.p., TD50/ED50): 2.02; ED50, scPic ([8]; mouse, in vivo, ip): 336.20 mg/kg; effectiveness against scPic relative to VPA ([8]; relative to VPA): 1.8 times; ED50, scMet [9, 14]: 239.93 mg/kg; result in scMet test compared with VPA ([9]; relative to VPA): nearly identical results as VPA; activity profile in all three testing procedures compared with trimethadione ([9]; scMet, scBic, scPic): very similar to trimethadione |
| CCOP(=O)(OCC)c1cccc(N)c1 [II, diethyl ester of 3-aminophenylphosphonic acid] |  |  |  | 389 | 175.43 | 2.22 | 1.86 |  | factor of greater protection against MES than VPA [7]: 1.4 times; ED50, scMet [9, 14]: 208.73 mg/kg |
| CC(C)OP(=O)(OC(C)C)c1cccc(N)c1 [III, diisopropyl ester of 3-aminophenylphosphonic acid] |  |  |  | 311 | 266.49 | 1.17 |  |  |  |
| CCOP(=O)(OCC)Oc1ccccc1NC(C)=O [IV, diethyl-2-acetamidophenylphosphate] |  |  |  | 458 |  | 1.31 | 1.03 |  | time course of neurotoxicity (neurotoxicity (Rotorod) [5]; mice, i.p., IV 580 mg/kg, up to 24 hours): high and prolonged toxicity beginning after two hours and persisting at this level from 6 to 24 hours; ED50 ([7]; Mus musculus, ip, mice): 348 mg/kg; latent protective effect in time course [10]: slight degree of latent protective effect; ED50 ([9]; Mus musculus, ip, mice, pentylenetetrazol 85 mg/kg s.c.): 444 mg/kg |
| CCC1(c2ccccc2)C(=O)NC(=O)NC1=O [Phenobarbital] | 37.72 | 27.51 | 60 |  |  |  |  | 13.17 |  |
| CN1C(=O)OC(C)(C)C1=O [Trimethadione] | 532.12 | 408.09 | 60 |  |  |  |  | 300.45 | P.I. (protective index, TD50/ED50), scBic [1]: 1.54; P.I. (protective index, TD50/ED50), scPic [2]: 2.01; P.I. (protective index, TD50/ED50), scMet [11]: 2.73; TD50, Rotorod neurotoxicity test (neurotoxicity (Rotorod) [12]): 819.07 mg/kg |
| CCCC(CCC)C(=O)O [VPA, Valproic Acid] | 359.95 | 387.21 | 16 |  |  |  |  | 148.59 | ED50, MES [13]: 217.66 mg/kg |
